{"source": "patent US20060083727A1", "about": "“Methods and compositions for the treatment of diseases characterized by calcification and/or plaque formation” (Nanobac Pharmaceuticals, Inc., priority 2004, published 2006)", "origin": "cited, not measured here", "tested_on": "NB/CNP", "settings": "background statement", "data": [{"molecule": "O=C(O)CN(CCN(CC(=O)O)CC(=O)O)CC(=O)O", "note": "[EDTA, Ethylenediaminetetraacetic acid]", "values": [{"measurement": "Effect on protective biofilm secreted by NB/CNP", "value": "can assist in dissolving the protective biofilm"}]}, {"molecule": "Penicillin", "values": [{"measurement": "Killing / sensitivity of NB/CNP", "value": "cannot be killed"}]}]}
